Reference: patent publication US8293729B2 (Boehringer Ingelheim International GmbH, priority 2009, dated 2012)
pEC50: −log10 of the molar value.

target: T1, human GPR119 receptor (Homo sapiens, UniProt Q8TDV5, S329A/T327A); assay: cAMP assay (LANCE cAMP-384) in HEK293 cells stably expressing mutant human GPR119 receptor; assay type: cell-based; conditions: HEK293, 20 min; at 10 μM; printed in EC50 column of the 36th table; read-out: stimulation in % at 10 μM
T1 construct: N-terminal leader […]; expressed in transfected cells
T1 sequence (Q8TDV5 with tags, fused parts or gaps T327A/S329A): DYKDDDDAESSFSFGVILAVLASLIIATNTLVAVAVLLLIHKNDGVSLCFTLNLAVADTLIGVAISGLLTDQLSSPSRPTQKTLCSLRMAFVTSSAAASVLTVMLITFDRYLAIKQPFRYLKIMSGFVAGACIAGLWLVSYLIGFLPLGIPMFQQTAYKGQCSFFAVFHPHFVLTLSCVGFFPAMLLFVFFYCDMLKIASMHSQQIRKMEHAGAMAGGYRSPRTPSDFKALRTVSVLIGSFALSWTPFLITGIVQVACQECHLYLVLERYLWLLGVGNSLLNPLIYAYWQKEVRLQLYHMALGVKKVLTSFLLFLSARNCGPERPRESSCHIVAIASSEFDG
Method in brief: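 Agonist EC50 came from nonlinear regression over 12 concentrations (30 μM–100 pM), with % stimulation at 10 μM where no EC50 was obtained. Cells: stable HEK293 with mutant human GPR119 (T327A/S329A), 20 min compound at 37° C; cAMP read by LANCE kit with standard curve.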

SMILES | activation at 10 µM
CN(C)c1ccc(CN2CCC(ON=C3CCN(c4ccc(S(C)(=O)=O)cc4F)CC3)CC2)cc1 [Example 66-36] | 83%

same assay, conditions: cAMP accumulation, HEK293 cells stably expressing mutant human GPR119; read-out: EC50

SMILES | pEC50
CC(C)OC(=O)N1CCC(ON=C2CCN(c3c(Cl)cncc3Cl)CC2)CC1 [Example 2-39] | 5.77
CC(C)OC(=O)N1CCC(ON=C2CCN(c3cc(F)c(-c4nccn4C)cc3F)CC2)CC1 [Example 27-16] | 5.26
CC(C)OC(=O)N1CCC(ON=C2CCN(c3cc(F)c(C(C)O)cc3F)CC2)CC1 (centres unmarked) [Example 50-1, 4-{1-[2,5-Difluoro-4-(1-hydroxy-ethyl)-phenyl]-piperidin-4-ylideneaminooxy}-piperidine-1-carboxylic acid isopropyl ester] | 7.32
CC(C)OC(=O)N1CCC(ON=C2CCN(c3ccc(F)c(F)n3)CC2)CC1 [Example 2-71] | 5.59
CC(C)OC(=O)N1CCC(ON=C2CCN(c3cc(F)c(Cn4cccc5ncnc4-5)cc3F)CC2)CC1 [Example 14-7] | 6.15
CC(C)OC(=O)N1CCC(ON=C2CCN(c3ccc(C=O)cc3Cl)CC2)CC1 [Example 2-31] | 5.90
CC(C)OC(=O)N1CCC(ON=C2CCN(c3cc(F)c(-c4cccnc4)cc3F)CC2)CC1 [Example 27-4] | 6.74
CCOC(=O)Nc1cc(F)c(N2CCC(=NOC3CCN(C(=O)OC(C)C)CC3)CC2)cc1F [Example 35-2] | 7.74
CC(C)OC(=O)N1CCC(ON=C2CCN(c3nc(Cl)ncc3Cl)CC2)CC1 [Example 2-49] | 6.77
CC(C)OC(=O)N1CCC(ON=C2CCN(c3ccc(-c4cnco4)cc3F)CC2)CC1 [Example 20-2] | 6.30
Cc1cnccc1N1CCC(=NOC2CCN(C(=O)OC(C)C)CC2)CC1 [Example 2-51] | 6.02
CC(C)OC(=O)N1CCC(ON=C2CCN(c3cc(F)c(-c4c[nH]cn4)cc3F)CC2)CC1 [Example 27-14] | 6.82
CC(C)OC(=O)N1CCC(ON=C2CCN(c3cc(F)c(CO)cc3F)CC2)CC1 [Example 10-1, 4-[1-(2,5-Difluoro-4-hydroxymethyl-phenyl)-piperidin-4-ylideneaminooxy]-piperidine-1-carboxylic acid isopropyl ester] | 8.05
COc1ccc(-c2cc(F)c(N3CCC(=NOC4CCN(C(=O)OC(C)C)CC4)CC3)cc2F)cn1 [Example 27-33] | 6.05
Cc1cc(C=O)ccc1N1CCC(=NOC2CCN(C(=O)OC(C)C)CC2)CC1 [Example 2-29] | 5.50
CC(C)OC(=O)N1CCC(ON=C2CCN(c3cc(F)c(N4CCCC4=O)cc3F)CC2)CC1 [Example 22-7] | 6.80
CC(C)OC(=O)N1CCC(ON=C2CCN(c3cc(F)c(C(=O)NCC(=O)O)cc3F)CC2)CC1 [Example 30-1, 4-{1-[4-(Carboxymethyl-carbamoyl)-2,5-difluoro-phenyl]-piperidin-4-ylideneaminooxy}-piperidine-1-carboxylic acid isopropyl ester] | 5.95
CC(C)OC(=O)N1CCC(ON=C2CCN(c3cc(F)c(Br)cc3F)CC2)CC1 [Example 2-40] | 5.70

same assay, conditions: the 15th table; read-out: EC50

SMILES | pEC50
CC(C)OC(=O)N1CCC(ON=C2CCN(c3cc(F)c(C(=O)N4CCC(CN5CCCC5)CC4)cc3F)CC2)CC1 [Example 29-48] | 7.16
CC(C)OC(=O)N1CCC(ON=C2CCN(c3cc(F)c(C(=O)N4CCC[C@@H]4CN)cc3F)CC2)CC1 [Example 29-50] | 6.88
CC(C)OC(=O)N1CCC(ON=C2CCN(c3cc(F)c(C(=O)NCCC4CCNCC4)cc3F)CC2)CC1 [Example 29-32] | 7.14

same assay, conditions: the 19th table; unit inferred; read-out: EC 50

SMILES | pEC50
CCc1cnc(N2CCC(ON=C3CCN(c4cc(F)c(C(=O)N5CCC[C@@H]5CN)cc4F)CC3)CC2)nc1 [Example 29-132] | 6.94
CCc1cnc(N2CCC(ON=C3CCN(c4cc(F)c(C(=O)N5CCCC(CN)C5)cc4F)CC3)CC2)nc1 (centres unmarked) [Example 29-124] | 7.26
CCc1cnc(N2CCC(ON=C3CCN(c4cc(F)c(C(=O)NCC5CNCCO5)cc4F)CC3)CC2)nc1 (centres unmarked) [Example 29-113] | 7.59

same assay, conditions: the 28th table; read-out: EC50

SMILES | pEC50
CC(C)OC(=O)N1CCC(ON=C2CCN(c3ncc(-n4cccn4)cc3F)CC2)CC1 [Example 51-2] | 6.25

same assay, conditions: the 32nd table; read-out: EC50

SMILES | pEC50
CCOC(=O)c1ccc(N2CCC(ON=C3CCN(c4ccc(S(C)(=O)=O)cc4F)CC3)CC2)nc1 [Example 63-26] | < 5.00
CS(=O)(=O)c1ccc(N2CCC(=NOC3CCN(c4ccnc(Cl)n4)CC3)CC2)c(F)c1 [Example 63-5] | < 5.00
COC(=O)c1cnc(N2CCC(ON=C3CCN(c4ccc(S(C)(=O)=O)cc4F)CC3)CC2)nc1 [Example 63-21] | 6.59
Cc1cccnc1N1CCC(ON=C2CCN(c3ccc(S(C)(=O)=O)cc3F)CC2)CC1 [Example 63-3] | < 5.00
CS(=O)(=O)c1ccc(N2CCC(=NOC3CCN(c4ccc(C(F)(F)F)cn4)CC3)CC2)c(F)c1 [Example 63-14] | 6.31
CS(=O)(=O)c1ccc(N2CCC(=NOC3CCN(c4ccc(Cl)cn4)CC3)CC2)c(F)c1 [Example 63-24] | 6.01

same assay, conditions: the 33rd table; read-out: EC50

SMILES | pEC50
CCC(CC)COC(=O)N1CCC(ON=C2CCN(c3ccc(S(C)(=O)=O)cc3F)CC2)CC1 [Example 64-49] | 7.27
CS(=O)(=O)c1ccc(N2CCC(=NOC3CCN(C(=O)OCCN4CCOCC4)CC3)CC2)c(F)c1 [Example 64-43] | < 5.00
CS(=O)(=O)c1ccc(N2CCC(=NOC3CCN(C(=O)OC4CCC4)CC3)CC2)c(F)c1 [Example 64-1, 4-[1-(2-Fluoro-4-methanesulfonyl-phenyl)-piperidin-4-ylideneaminooxy]-piperidine-1-carboxylic acid cyclobutyl ester] | 7.09
CS(=O)(=O)c1ccc(N2CCC(=NOC3CCN(C(=O)OCCN4CCCCC4)CC3)CC2)c(F)c1 [Example 64-28] | < 5.00

same assay, conditions: the 34th table, compounds 65-1 to 65-24; read-out: EC50

SMILES | pEC50
CS(=O)(=O)c1ccc(N2CCC(=NOC3CCN(CC(=O)Nc4ccccc4)CC3)CC2)c(F)c1 [Example 65-2] | < 5.00
CC(C)S(=O)(=O)N1CCC(ON=C2CCN(c3ccc(S(C)(=O)=O)cc3F)CC2)CC1 [Example 65-16] | < 5.00
CC(C)COC(=O)N1CCC(ON=C2CCN(c3ccc(S(C)(=O)=O)cc3F)CC2)CC1 [Example 65-13] | 7.09

same assay, conditions: the 36th table, compounds 66-1 to 66-51; read-out: EC50

SMILES | pEC50
Cc1ccc(CN2CCC(ON=C3CCN(c4ccc(S(C)(=O)=O)cc4F)CC3)CC2)c(F)c1 [Example 66-47] | 6.04
CS(=O)(=O)c1ccc(N2CCC(=NOC3CCN(Cc4ncc[nH]4)CC3)CC2)c(F)c1 [Example 66-2] | < 5.00
CS(=O)(=O)c1ccc(N2CCC(=NOC3CCN(Cc4ccccc4C(F)(F)F)CC3)CC2)c(F)c1 [Example 66-29] | 5.92
COc1ccc(CN2CCC(ON=C3CCN(c4ccc(S(C)(=O)=O)cc4F)CC3)CC2)cc1 [Example 66-45] | 5.22
Cn1ccnc1CN1CCC(ON=C2CCN(c3ccc(S(C)(=O)=O)cc3F)CC2)CC1 [Example 66-12] | < 5.00
Cn1cc(CN2CCC(ON=C3CCN(c4ccc(S(C)(=O)=O)cc4F)CC3)CC2)cn1 [Example 66-10] | < 5.00
COc1ccc(CN2CCC(ON=C3CCN(c4ccc(S(C)(=O)=O)cc4F)CC3)CC2)cc1F [Example 66-38] | 6.36
CCOc1ccc(CN2CCC(ON=C3CCN(c4ccc(S(C)(=O)=O)cc4F)CC3)CC2)cc1 [Example 66-46] | 6.38
Cc1nc(CN2CCC(ON=C3CCN(c4ccc(S(C)(=O)=O)cc4F)CC3)CC2)cs1 [Example 66-14] | < 5.00
Cc1nc[nH]c1CN1CCC(ON=C2CCN(c3ccc(S(C)(=O)=O)cc3F)CC2)CC1 [Example 66-9] | < 5.00

same assay, conditions: the 37th table, compounds 66-52 to 66-64; read-out: EC50

SMILES | pEC50
C/C=C/c1ccc(CN2CCC(ON=C3CCN(c4cc(F)c(S(C)(=O)=O)cc4F)CC3)CC2)cc1F [Example 66-61] | 7.31

same assay, conditions: the 38th table, compounds 66-65 to 66-72; read-out: EC50

SMILES | pEC50
CNC(=O)c1cc(F)c(N2CCC(=NOC3CCN(Cc4ccc(-c5cccnc5)cc4)CC3)CC2)cc1F [Example 66-66] | 5.90
CNC(=O)c1cc(F)c(N2CCC(=NOC3CCN(Cc4ccc(Cl)cc4)CC3)CC2)cc1F [Example 66-68] | 6.44

same assay, conditions: the 43rd table, compounds 75-1 to 75-38; read-out: EC50

SMILES | pEC50
CC(C)OC(=O)N1CCC(ON=C2CCN(c3cc(F)c(CC(=O)NCC4CCCNC4)cc3F)CC2)CC1 (centres unmarked) [Example 75-23] | 6.42
CC(C)OC(=O)N1CCC(ON=C2CCN(c3cc(F)c(CC(=O)N4CCCCC4CN4CCCC4)cc3F)CC2)CC1 (centres unmarked) [Example 75-30] | 6.48
CC(C)OC(=O)N1CCC(ON=C2CCN(c3cc(F)c(CC(=O)NC4CCNCC4)cc3F)CC2)CC1 [Example 75-18] | 7.01
CC(C)OC(=O)N1CCC(ON=C2CCN(c3cc(F)c(CC(=O)NCC4CCNCC4)cc3F)CC2)CC1 [Example 75-26] | 6.63

same assay, conditions: the 44th table, compounds 77-1 to 77-14; read-out: EC50

SMILES | pEC50
CCc1cnc(N2CCC(ON=C3CCN(c4cc(F)c(CC(=O)N(C)C)cc4F)CC3)CC2)nc1 [Example 77-3] | 7.74
CCc1cnc(N2CCC(ON=C3CCN(c4cc(F)c(CC(=O)N5CC[C@H](N)C5)cc4F)CC3)CC2)nc1 [Example 77-12] | 7.72
CCc1cnc(N2CCC(ON=C3CCN(c4cc(F)c(CC(=O)N5CC[C@H](N(C)C)C5)cc4F)CC3)CC2)nc1 [Example 77-5] | 8.22
